Measurements from PubChem BioAssay AID248 (DTP/NCI, 2004).
Values joined by “and” are separate entries in the source; they are usually repeats but may differ in a detail not shown here. Identical values can stand only once. Inconclusive results and toxic doses are left out. Cut-off read from the data, not from the text of the source: active = T/C of 150% or more; inactive = T/C below 125%.

Test system: L1210 leukemia ip in BDF1 mice, survival T/C
Assay: NCI In Vivo Anticancer Drug Screen. Data for tumor model L1210 Leukemia (intraperitoneal) in B6D2F1 (BDF1) mice
Conditions: endpoint: mean survival time, higher = longer survival
How it was run: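 Read-out is survival time, reported as the treated-group measurement over the vehicle-control measurement.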

[1] = dose: 100.0 mg/kg/injection, schedule: Q01DX009 (ip), vehicle: Klucel (hydroxypropylcellulose) (HPC)
[2] = dose: 200.0 mg/kg/injection, schedule: Q01DX009 (ip), vehicle: Klucel (hydroxypropylcellulose) (HPC)
[3] = dose: 400.0 mg/kg/injection, schedule: Q01DX009 (ip), vehicle: Klucel (hydroxypropylcellulose) (HPC)
[4] = dose: 50.0 mg/kg/injection, schedule: Q04DX003 (ip), vehicle: saline with Tween-80
[5] = dose: 100.0 mg/kg/injection, schedule: Q04DX003 (ip), vehicle: saline with Tween-80
[6] = dose: 200.0 mg/kg/injection, schedule: Q04DX003 (ip), vehicle: saline with Tween-80
[7] = dose: 100.0 mg/kg/injection, schedule: Q04DX003 (ip), vehicle: saline
[8] = dose: 200.0 mg/kg/injection, schedule: Q04DX003 (ip), vehicle: saline
[9] = dose: 400.0 mg/kg/injection, schedule: Q04DX003 (ip), vehicle: saline
[10] = dose: 400.0 mg/kg/injection, schedule: Q01DX001 (ip), vehicle: Klucel (hydroxypropylcellulose) (HPC)
[11] = dose: 50.0 mg/kg/injection, schedule: Q01DX009 (ip), vehicle: saline with Tween-80
[12] = dose: 100.0 mg/kg/injection, schedule: Q01DX009 (ip), vehicle: saline with Tween-80
[13] = dose: 100.0 mg/kg/injection, schedule: Q01DX009 (ip), vehicle: saline
[14] = dose: 200.0 mg/kg/injection, schedule: Q01DX009 (ip), vehicle: saline with Tween-80
[15] = dose: 200.0 mg/kg/injection, schedule: Q01DX009 (ip), vehicle: saline
[16] = dose: 400.0 mg/kg/injection, schedule: Q01DX009 (ip), vehicle: saline with Tween-80
[17] = dose: 100.0 mg/kg/injection, schedule: Q01DX001 (ip), vehicle: saline
[18] = dose: 100.0 mg/kg/injection, schedule: Q04DX003 (ip), vehicle: Klucel (hydroxypropylcellulose) (HPC)
[19] = dose: 200.0 mg/kg/injection, schedule: Q04DX003 (ip), vehicle: Klucel (hydroxypropylcellulose) (HPC)
[20] = dose: 400.0 mg/kg/injection, schedule: Q04DX003 (ip), vehicle: Klucel (hydroxypropylcellulose) (HPC)
[21] = dose: 100.0 mg/kg/injection, schedule: Q01DX001 (ip), vehicle: Klucel (hydroxypropylcellulose) (HPC)
[22] = dose: 200.0 mg/kg/injection, schedule: Q01DX001 (ip), vehicle: Klucel (hydroxypropylcellulose) (HPC)

Measured: T/C

Cc1ccc(C(=O)C2CC=CCC2C(=O)c2ccc(C)cc2)cc1 (stereo not drawn)
inactive: dose: 50.0 mg/kg/injection, schedule: Q01DX009 (ip), vehicle: Klucel (hydroxypropylcellulose) (HPC) 97 % of control | [1] 91 % of control | [2] 92 % of control | [3] 90 % of control

CC1(C)N=C(N)N=C(N)N1c1ccc2c(Cl)c(Cl)ccc2c1
inactive: [4] 106 % of control | [5] 107 % of control and 114 % of control | [6] 107 % of control

O=CNC(Cc1ccc(O)cc1)C(=O)O (stereo not drawn)
inactive: [7] 95 % of control | [8] 91 % of control | [9] 93 % of control

CCCCCCCCCCCCCCSCCSCCSCCCCCCCCCCCCCC
inactive: dose: 12.5 mg/kg/injection, schedule: Q01DX001 (ip), vehicle: Klucel (hydroxypropylcellulose) (HPC) 103 % of control | dose: 25.0 mg/kg/injection, schedule: Q01DX001 (ip), vehicle: Klucel (hydroxypropylcellulose) (HPC) 97 % of control | dose: 50.0 mg/kg/injection, schedule: Q01DX001 (ip), vehicle: Klucel (hydroxypropylcellulose) (HPC) 89 % of control | [10] 87 % of control

CC(=O)OC1CC2CCC1(C)C2(C)C (stereo not drawn)
inactive: [11] 100 % of control | dose: 50.0 mg/kg/injection, schedule: Q01DX009 (ip), vehicle: saline 96 % of control | [12] 96 % of control | [13] 98 % of control | [7] 87 % of control | [14] 96 % of control | [15] 89 % of control | [8] 90 % of control

CCc1occ(C(=O)OC)c1C(=O)OC
inactive: [12] 96 % of control | [5] 95 % of control | [14] 96 % of control | [6] 94 % of control | [16] 100 % of control | dose: 400.0 mg/kg/injection, schedule: Q04DX003 (ip), vehicle: saline with Tween-80 104 % of control

COC(=O)[C@@H]1c2cc3c(c(O)c2[C@@H](OC2OC(C)C(OC)C(C)(OC)C2OC)C[C@]1(C)O)C(=O)c1c(O)cc2c(c1C3=O)O[C@H]1O[C@]2(C)[C@H](O)[C@@H](N(C)C)[C@@H]1O (stereo partly drawn)
inactive: dose: 0.2 mg/kg/injection, schedule: Q01DX Z (ip), vehicle: saline 98 % of control | dose: 0.25 mg/kg/injection, schedule: Q01DX009 (ip), vehicle: saline 102 % of control | dose: 0.3 mg/kg/injection, schedule: Q01DX Z (ip), vehicle: saline 116 % of control | dose: 0.44 mg/kg/injection, schedule: Q01DX Z (ip), vehicle: saline 107 % of control | dose: 0.5 mg/kg/injection, schedule: Q01DX009 (ip), vehicle: saline 107 % of control | dose: 0.67 mg/kg/injection, schedule: Q01DX Z (ip), vehicle: saline 112 % of control | dose: 0.8 mg/kg/injection, schedule: Q## X008 (ip), vehicle: saline 113 % of control | dose: 0.8 mg/kg/injection, schedule: Q## X032 (ip), vehicle: saline 113 % of control | dose: 1.0 mg/kg/injection, schedule: Q01DX001 (ip), vehicle: saline 115 % of control | dose: 1.0 mg/kg/injection, schedule: Q01DX009 (ip), vehicle: saline 106 % of control | dose: 1.0 mg/kg/injection, schedule: Q01DX Z (ip), vehicle: saline 107 % of control | dose: 1.5 mg/kg/injection, schedule: Q01DX Z (ip), vehicle: carboxymethylcellulose (CMC) 116 % of control | dose: 2.0 mg/kg/injection, schedule: Q01DX001 (ip), vehicle: saline 120 % of control | dose: 2.0 mg/kg/injection, schedule: Q01DX009 (ip), vehicle: saline 86 % of control | dose: 2.0 mg/kg/injection, schedule: Q01DX Z (ip), vehicle: carboxymethylcellulose (CMC) 102 % of control | dose: 4.0 mg/kg/injection, schedule: Q01DX001 (ip), vehicle: saline 114 % of control | dose: 5.0 mg/kg/injection, schedule: Q01DX001 (ip), vehicle: saline 118 % of control | dose: 8.0 mg/kg/injection, schedule: Q01DX001 (ip), vehicle: saline 108 % of control | dose: 8.0 mg/kg/injection, schedule: Q## X008 (ip), vehicle: saline 109 % of control | dose: 8.0 mg/kg/injection, schedule: Q## X032 (ip), vehicle: saline 103 % of control | dose: 10.0 mg/kg/injection, schedule: Q01DX001 (ip), vehicle: saline 109 % of control

Cc1ccc(NC(=O)C(c2ccc(Cl)cc2)c2ccc(Cl)cc2)cc1
inactive: dose: 100.0 mg/kg/injection, schedule: Q04DX002 (ip), vehicle: Klucel (hydroxypropylcellulose) (HPC) 96 % of control | dose: 200.0 mg/kg/injection, schedule: Q04DX002 (ip), vehicle: Klucel (hydroxypropylcellulose) (HPC) 100 % of control | dose: 400.0 mg/kg/injection, schedule: Q04DX002 (ip), vehicle: Klucel (hydroxypropylcellulose) (HPC) 96 % of control

CCOC(=O)/C=C(\COC)c1ccccc1
inactive: [17] 104 % of control | dose: 200.0 mg/kg/injection, schedule: Q01DX001 (ip), vehicle: saline 104 % of control | dose: 400.0 mg/kg/injection, schedule: Q01DX001 (ip), vehicle: saline 104 % of control

COc1cc([N+](=O)[O-])c(/C=C2/c3cc(OC)c(OC)cc3CCN2C)cc1Br
inactive: [1] 100 % of control | [18] 90 % of control | [2] 96 % of control | [19] 96 % of control | [3] 92 % of control | [20] 95 % of control

CCN(CC)C(=O)NC1CCCN1C (stereo not drawn)
inactive: [13] 96 % of control | [7] 97 % of control | [15] 101 % of control | [8] 107 % of control | dose: 400.0 mg/kg/injection, schedule: Q01DX009 (ip), vehicle: saline 109 % of control | [9] 103 % of control

CC(=O)NC1CON(C(C)=O)C1=O (stereo not drawn)
inactive: [18] 97 % of control | [19] 103 % of control | [20] 103 % of control

NN1C(=O)c2ccccc2C1=O
inactive: [12] 100 % of control | [14] 95 % of control | [16] 92 % of control

O=C1C=C(c2ccccc2)C(=O)c2ccccc21
inactive: [21] 106 % of control | [22] 101 % of control | [10] 105 % of control

COC1CCCCC1SCSC1CCCCC1OC (stereo not drawn)
inactive: [12] 90 % of control | [16] 88 % of control

CCOC(=O)N(CC(C)C(=O)OC)C(C)C (stereo not drawn)
inactive: dose: 100.0 mg/kg/injection, schedule: Q01DX Z (ip), vehicle: saline 100 % of control | dose: 200.0 mg/kg/injection, schedule: Q01DX Z (ip), vehicle: saline 97 % of control

O=C(N/N=C/c1[nH]c(=S)[nH]c(=O)c1Cc1ccc(Cl)cc1)c1ccncc1
inactive: [21] 104 % of control | [22] 101 % of control | [10] 98 % of control

CC(C)CN(CC(C)C)Cn1nnc2ccccc21
inactive: dose: 75.0 mg/kg/injection, schedule: Q01DX001 (ip), vehicle: carboxymethylcellulose (CMC) 100 % of control | dose: 150.0 mg/kg/injection, schedule: Q01DX001 (ip), vehicle: carboxymethylcellulose (CMC) 94 % of control | dose: 300.0 mg/kg/injection, schedule: Q01DX001 (ip), vehicle: carboxymethylcellulose (CMC) 108 % of control

CCCCCCCC(=N)OCC
inactive: [11] 97 % of control | [4] 104 % of control | dose: 100.0 mg/kg/injection, schedule: Q01DX001 (ip), vehicle: saline with Tween-80 94 % of control | [12] 110 % of control | [5] 93 % of control | dose: 200.0 mg/kg/injection, schedule: Q01DX001 (ip), vehicle: saline with Tween-80 104 % of control | [6] 87 % of control

CCCCCCN(CCCCCC)P(=O)(N1CC1C)N1CC1C (stereo not drawn)
inactive: dose: 50.0 mg/kg/injection, schedule: Q01DX001 (ip), vehicle: saline 104 % of control | [17] 101 % of control
